Measurements from patent US20160145242A1, “PHENYLIMIDAZOLE DERIVATIVE, AND THERAPEUTIC MEDICINE OR PREVENTIVE MEDICINE FOR INFLAMMATORY DISEASE, ETC” (NIPPON SODA CO., LTD., priority 2013, published 2016).

System: mouse model of retinal light disorders
Assay: Retinal light disorder model test (ONL thickness)
Assay type: in vivo
Settings: BALB/cCr male mouse, 30 mg/kg oral 30 minutes before 2 hours white light, eyes taken after 4 days
Protocol: (Retinal Light Disorder Model Test)
The usefulness (improvement rate with respect to retinal light disorders) of the compound of the invention was evaluated using a mouse model of retinal light disorders, generally used as a model of retinal light disorders, (Investigative Ophthalmology & Visual Science, 2002; vol. 43; pp. 1162 to 1167). Here, the improvement rate with respect to the retinal light disorders was calculated based on the thickness of an outer nuclear layer (hereinafter, referred to as “ONL”), which is strongly interfered especially by light application among a retinal cell layers, in a tissue specimen of a perpendicular surface of an eyeball.
Moreover, in the present test, the ONL of a light application group to which only a base was administered was degraded to 30% to 50% of a normal light group.
A test compound was dissolved or suspended in a solvent (1% (w/v) methyl cellulose aqueous solution) and then an administration liquid was prepared so that the test compound to be 30 mg/kg body weight. The dose was set to 10 ml/kg body weight.
A 5-week-old BALB/cCr-based male mouse (weight of approximately 20 g) was bred in a dark place for 48 hours. Subsequently, the test compound administration liquid was orally administered (30 mg/kg). After 30 minutes, […] of white light was continuously applied to the mouse for 2 hours. Next, the mouse was bred in a breeding room with 50 lux of light for 4 days.
An anesthetic (secobarbital sodium) was intraperitoneally administered to anesthetize the mouse and then the mouse was exsanguinated to die. The top portion of the right eyeball was marked with a thread and the eyeball was extracted. […]
The ONL thickness in the tissue specimen was measured for every 200 μm between the optic nerve papilla to where upwardly spaced by 1 mm from the optic nerve papilla using Lumina Vision. The area (AUC) from the optic nerve papilla to where upwardly spaced by 1 mm from the optic papilla in the graph was calculated as an ONL area. […]

Compound | ONL thickness improvement rate
CC(=O)N1CCN(c2ccc([N+](=O)[O-])c(-n3ccnc3)c2)CC1 [2-imidazole-1-yl-4-(acetylpiperazine-1-yl)nitrobenzene, reference compound] | 29.2%
CC(=O)NC1CCN(c2ccc(N)c(-n3ccnc3)c2)C1 (centres unmarked) [Compound 3-1, 3-acetylamino-1-(4-amino-3-imidazole-1-yl-phenyl)pyrrolidine] | 87.2%
